From PubChem BioAssay (NCI)
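Results reflect a 48-hour exposure of cells in 96-well plates to compound at five concentrations. GI50 = concentration required for 50% inhibition of growth. The concentration for full growth arrest is given as TGI.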

How the values were obtained:
Assay in all cases: NCI-60 cell line screen, 48 h
SF-295 CNS = tested on: SF-295 CNS
SK-MEL-28 melanoma = tested on: SK-MEL-28 melanoma
DMS 114 small cell lung = tested on: DMS 114 small cell lung
HL-60(TB) leukemia = tested on: HL-60(TB) leukemia
UACC-62 melanoma = tested on: UACC-62 melanoma
HOP-92 NSCLC = tested on: HOP-92 NSCLC
SK-MEL-2 melanoma = tested on: SK-MEL-2 melanoma
SK-MEL-5 melanoma = tested on: SK-MEL-5 melanoma
SN12C renal = tested on: SN12C renal
IGROV1 ovarian = tested on: IGROV1 ovarian
OVCAR-5 ovarian = tested on: OVCAR-5 ovarian
NCI-H23 lung = tested on: NCI-H23 lung
A498 renal = tested on: A498 renal
LXFL 529 NSCLC = tested on: LXFL 529 NSCLC
XF 498 CNS = tested on: XF 498 CNS
NCI-H460 lung = tested on: NCI-H460 lung
SF-268 CNS = tested on: SF-268 CNS
A549 NSCLC = tested on: A549 NSCLC
HOP-62 NSCLC = tested on: HOP-62 NSCLC
NCI-H522 lung = tested on: NCI-H522 lung
KM12 colon = tested on: KM12 colon
TK-10 renal = tested on: TK-10 renal
CCRF-CEM leukemia = tested on: CCRF-CEM leukemia
OVCAR-4 ovarian = tested on: OVCAR-4 ovarian
SW-620 colon = tested on: SW-620 colon
RPMI-8226 leukemia = tested on: RPMI-8226 leukemia
RXF-631 renal = tested on: RXF-631 renal
OVCAR-3 ovarian = tested on: OVCAR-3 ovarian
SNB-19 CNS = tested on: SNB-19 CNS
HOP-18 NSCLC = tested on: HOP-18 NSCLC
SF-539 CNS = tested on: SF-539 CNS
RXF 393 renal = tested on: RXF 393 renal
MOLT-4 leukemia = tested on: MOLT-4 leukemia
M19-MEL melanoma = tested on: M19-MEL melanoma
NCI-H226 lung = tested on: NCI-H226 lung
UO-31 renal = tested on: UO-31 renal
ACHN renal = tested on: ACHN renal
HCT-116 colon = tested on: HCT-116 colon
SK-OV-3 ovarian = tested on: SK-OV-3 ovarian
K-562 leukemia = tested on: K-562 leukemia
786-0 renal = tested on: 786-0 renal
KM20L2 colon = tested on: KM20L2 colon
SNB-75 CNS = tested on: SNB-75 CNS
M14 melanoma = tested on: M14 melanoma
COLO 205 colon = tested on: COLO 205 colon
EKVX NSCLC = tested on: EKVX NSCLC
DLD-1 colon = tested on: DLD-1 colon
CAKI-1 renal = tested on: CAKI-1 renal
HCC-2998 colon = tested on: HCC-2998 colon
MALME-3M melanoma = tested on: MALME-3M melanoma
HCT-15 colon = tested on: HCT-15 colon
SNB-78 CNS = tested on: SNB-78 CNS
OVCAR-8 ovarian = tested on: OVCAR-8 ovarian
LOX IMVI melanoma = tested on: LOX IMVI melanoma
DMS 273 small cell lung = tested on: DMS 273 small cell lung
HT29 colon = tested on: HT29 colon
UACC-257 melanoma = tested on: UACC-257 melanoma
U251 CNS = tested on: U251 CNS
SR leukemia = tested on: SR leukemia

## CC(C)N(C(C)C)[PH+]1O[PH+](N(C(C)C)C(C)C)O[PH+](N(C(C)C)C(C)C)O[PH+](N(C(C)C)C(C)C)O1.[C-]#[O+].[C-]#[O+].[C-]#[O+].[C-]#[O+].[C-]#[O+].[C-]#[O+].[C-]#[O+].[C-]#[O+].[Mo].[Mo] (centres undefined)
SF-295 CNS
  GI50: > 100 µM
  TGI: > 100 µM
SK-MEL-28 melanoma
  GI50: > 100 µM
  TGI: > 100 µM
DMS 114 small cell lung
  GI50: > 100 µM
  TGI: > 100 µM
HL-60(TB) leukemia
  GI50: > 100 µM
  TGI: > 100 µM
UACC-62 melanoma
  GI50: > 100 µM
  TGI: > 100 µM
HOP-92 NSCLC
  GI50: > 100 µM
  TGI: > 100 µM
SK-MEL-2 melanoma
  GI50: > 100 µM
  TGI: > 100 µM
SK-MEL-5 melanoma
  GI50: > 100 µM
  TGI: > 100 µM
SN12C renal
  GI50: > 100 µM
  TGI: > 100 µM
IGROV1 ovarian
  GI50: > 100 µM
  TGI: > 100 µM
OVCAR-5 ovarian
  GI50: > 100 µM
  TGI: > 100 µM
NCI-H23 lung
  GI50: > 100 µM
  TGI: > 100 µM
A498 renal
  GI50: > 100 µM
  TGI: > 100 µM
LXFL 529 NSCLC
  GI50: > 100 µM
  TGI: > 100 µM
XF 498 CNS
  GI50: > 100 µM
  TGI: > 100 µM
NCI-H460 lung
  GI50: > 100 µM
  TGI: > 100 µM
SF-268 CNS
  GI50: > 100 µM
  TGI: > 100 µM
A549 NSCLC
  GI50: > 100 µM
  TGI: > 100 µM
HOP-62 NSCLC
  GI50: > 100 µM
  TGI: > 100 µM
NCI-H522 lung
  GI50: > 100 µM
  TGI: > 100 µM
KM12 colon
  GI50: > 100 µM
  TGI: > 100 µM
TK-10 renal
  GI50: > 100 µM
  TGI: > 100 µM
CCRF-CEM leukemia
  GI50: > 100 µM
  TGI: > 100 µM
OVCAR-4 ovarian
  GI50: > 100 µM
  TGI: > 100 µM
SW-620 colon
  GI50: > 100 µM
  TGI: > 100 µM
RPMI-8226 leukemia
  GI50: > 100 µM
  TGI: > 100 µM
RXF-631 renal
  GI50: > 100 µM
  TGI: > 100 µM
OVCAR-3 ovarian
  GI50: > 100 µM
  TGI: > 100 µM
SNB-19 CNS
  GI50: > 100 µM
  TGI: > 100 µM
HOP-18 NSCLC
  GI50: > 100 µM
  TGI: > 100 µM
SF-539 CNS
  GI50: > 100 µM
  TGI: > 100 µM
RXF 393 renal
  GI50: > 100 µM
  TGI: > 100 µM
MOLT-4 leukemia
  GI50: > 100 µM
  TGI: > 100 µM
M19-MEL melanoma
  GI50: > 100 µM
  TGI: > 100 µM
NCI-H226 lung
  GI50: > 100 µM
  TGI: > 100 µM
UO-31 renal
  GI50: > 100 µM
  TGI: > 100 µM
ACHN renal
  GI50: > 100 µM
  TGI: > 100 µM
HCT-116 colon
  GI50: > 100 µM
  TGI: > 100 µM
SK-OV-3 ovarian
  GI50: > 100 µM
  TGI: > 100 µM
K-562 leukemia
  GI50: > 100 µM
  TGI: > 100 µM
786-0 renal
  GI50: > 100 µM
  TGI: > 100 µM
KM20L2 colon
  GI50: > 100 µM
  TGI: > 100 µM
SNB-75 CNS
  GI50: > 100 µM
  TGI: > 100 µM
M14 melanoma
  GI50: > 100 µM
  TGI: > 100 µM
COLO 205 colon
  GI50: > 100 µM
  TGI: > 100 µM
EKVX NSCLC
  GI50: > 100 µM
  TGI: > 100 µM
DLD-1 colon
  GI50: > 100 µM
  TGI: > 100 µM
CAKI-1 renal
  GI50: > 100 µM
  TGI: > 100 µM
HCC-2998 colon
  GI50: > 100 µM
  TGI: > 100 µM
MALME-3M melanoma
  GI50: > 100 µM
  TGI: > 100 µM
HCT-15 colon
  GI50: > 100 µM
  TGI: > 100 µM
SNB-78 CNS
  GI50: > 100 µM
  TGI: > 100 µM
OVCAR-8 ovarian
  GI50: > 100 µM
  TGI: > 100 µM
LOX IMVI melanoma
  GI50: > 100 µM
  TGI: > 100 µM
DMS 273 small cell lung
  GI50: > 100 µM
  TGI: > 100 µM
HT29 colon
  GI50: > 100 µM
  TGI: > 100 µM
UACC-257 melanoma
  GI50: > 100 µM
  TGI: > 100 µM
U251 CNS
  GI50: > 100 µM
  TGI: > 100 µM

## Cc1csc2nc(-c3ccncc3)cn12
SF-295 CNS
  TGI: > 100 µM
SK-MEL-28 melanoma
  TGI: > 100 µM
DMS 114 small cell lung
  TGI: > 60.9 µM
HL-60(TB) leukemia
  TGI: > 52.4 µM
UACC-62 melanoma
  TGI: > 100 µM
HOP-92 NSCLC
  TGI: > 100 µM
SK-MEL-2 melanoma
  TGI: > 100 µM
SK-MEL-5 melanoma
  TGI: > 100 µM
SN12C renal
  TGI: > 100 µM
IGROV1 ovarian
  TGI: > 100 µM
OVCAR-5 ovarian
  TGI: > 100 µM
NCI-H23 lung
  TGI: > 100 µM
A498 renal
  TGI: > 100 µM
LXFL 529 NSCLC
  TGI: > 76.5 µM
XF 498 CNS
  TGI: > 100 µM
NCI-H460 lung
  TGI: > 61.4 µM
SR leukemia
  TGI: 51 µM
SF-268 CNS
  TGI: > 100 µM
A549 NSCLC
  TGI: > 100 µM
HOP-62 NSCLC
  TGI: > 100 µM
NCI-H522 lung
  TGI: > 100 µM
KM12 colon
  TGI: > 100 µM
TK-10 renal
  TGI: > 100 µM
CCRF-CEM leukemia
  TGI: > 61 µM
OVCAR-4 ovarian
  TGI: > 100 µM
SW-620 colon
  TGI: > 54.2 µM
RPMI-8226 leukemia
  TGI: > 64.1 µM
RXF-631 renal
  TGI: > 100 µM
OVCAR-3 ovarian
  TGI: > 100 µM
SNB-19 CNS
  TGI: > 100 µM
HOP-18 NSCLC
  TGI: > 100 µM
SF-539 CNS
  TGI: > 65.9 µM
MOLT-4 leukemia
  TGI: > 100 µM
M19-MEL melanoma
  TGI: > 100 µM
NCI-H226 lung
  TGI: > 100 µM
UO-31 renal
  TGI: > 100 µM
ACHN renal
  TGI: > 100 µM
HCT-116 colon
  TGI: > 59.3 µM
SK-OV-3 ovarian
  TGI: > 100 µM
K-562 leukemia
  TGI: > 65.4 µM
786-0 renal
  TGI: 34.5 µM
KM20L2 colon
  TGI: > 100 µM
SNB-75 CNS
  TGI: > 100 µM
M14 melanoma
  TGI: > 100 µM
COLO 205 colon
  TGI: > 79.7 µM
EKVX NSCLC
  TGI: > 100 µM
DLD-1 colon
  TGI: > 100 µM
CAKI-1 renal
  TGI: > 100 µM
HCC-2998 colon
  TGI: > 100 µM
MALME-3M melanoma
  TGI: > 100 µM
HCT-15 colon
  TGI: > 56.7 µM
SNB-78 CNS
  TGI: > 100 µM
OVCAR-8 ovarian
  TGI: > 100 µM
LOX IMVI melanoma
  TGI: > 61.5 µM
DMS 273 small cell lung
  TGI: 41 µM
HT29 colon
  TGI: > 100 µM
UACC-257 melanoma
  TGI: > 100 µM
U251 CNS
  TGI: > 72.6 µM
